# Source: patent US11203608B2, “Platinum-containing compounds, and related compositions and uses thereof” (Massachusetts Institute of Technology, priority 2019, dated 2021)
# Experiments:
# [1] = test system: A549 human lung carcinoma; assay: Cell growth, resazurin assay, A549; assay type: cell-based; conditions: 96-h exposure (table title)
# Description: (§3) Cells were cultured in 10 mL of Advanced DMEM/F12 (ADMEM/F12), supplemented with 5% FBS, 2 mM GlutaMAX, and 1% Penicillin-Streptomycin in 10 cm tissue culture plates. Cells were then plated into 96-well plates with about 2.5×10^3 cells per well. Cells were plated with 200 μL per well of ADMEM/F12 supplemented with 5% FBS, 2 mM GlutaMAX, and 1% Penicillin-Streptomycin. Cells were treated with dose responses of doxorubicin, oxaliplatin, or doxaliplatin upon plating. The cells were then cultured for 72 hours following drug treatment, and cell growth was measured by resazurin assay.
# [2] = test system: HL60 human leukemia cell line; assay: Cell growth, resazurin assay, HL60; assay type: cell-based; conditions: 96-h exposure (table title)
# Description: as §3
# [3] = test system: APC−/−; KRASG12D/WT; P53−/− (AKP) organoids; assay: Viability of AKP murine colorectal cancer organoids; assay type: cell-based
# Description: (§1) To generate 4. APC^−/−; KRAS^G12D/WT; P53^−/−; (AKP) and 5. APC^−/−; KRAS^G12D/WT; P53^−/−; MSH2^−/− (AKP-MSH2) colon cancer organoids, colonic crypts were isolated and colon organoids were generated from the following mouse genotypes on a C57Bl/6 background: 4. LSL-KRAS^G12D/WT; P53^fl/fl mice and 5. LSL-KRAS^G12D; P53^fl/fl; MSH2^fl/fl mice. Subsequently, the pSECC-APC plasmid (carrying Cre, Cas9, and sgAPC) was transfected into each of the above two genotypes of colon organoids. Following pSECC-APC transfection, Wnt/Rspo withdrawal was performed and surviving (APC^−/−) single organoids were cloned and PCR genotyped for Cre mediated deletion of p53 and/or MSH2, and for Cre mediated activation of oncogenic KRAS^G12D.
# (§2) Twenty four hours after seeding the organoids, a media change was performed and dose responses of oxaliplatin, doxorubicin and doxaliplatin were added. […] Organoids were cultured in Advanced DMEM/F12 supplemented with 2 mM GlutaMAX, 1% Penicillin-Streptomycin, 2% B27, and Y-27632 (10 μM).
# U2OS human osteosarcoma = assay: Cell growth, resazurin assay, U2OS; assay type: cell-based; conditions: 96-h exposure (table title); read-out: IC50 U2OS (bone)
# Description: as §3
# [4] = test system: OVCAR8-OXR oxaliplatin-resistant human ovarian cancer cell line; assay: Cell growth, resazurin assay, OVCAR8-OXR; conditions: 72-h exposure; for Fold Resistance (IC50, OVCAR8OXR vs OVCAR8): based on IC50 values
# Description: Cells were cultured in 10 mL of Advanced DMEM/F12 (ADMEM/F12), supplemented with 5% FBS, 2 mM GlutaMAX, and 1% Penicillin-Streptomycin in 10 cm tissue culture plates. Cells were then plated into 96-well plates with about 2.5×10^3 cells per well. Cells were plated with 200 μL per well of ADMEM/F12 supplemented with 5% FBS, 2 mM GlutaMAX, and 1% Penicillin-Streptomycin. […] The cells were then cultured for 72 hours following drug treatment, and cell growth was measured by resazurin assay.
# [5] = test system: PC3 human prostate adenocarcinoma; assay: Cell growth, resazurin assay, PC3; assay type: cell-based; conditions: 96-h exposure (table title)
# Description: as §3
# [6] = test system: APC−/−; KRASG12D/WT; P53−/−; MSH2−/− (AKP-MSH2) organoids; assay: Viability of AKP-MSH2 murine colorectal cancer organoids; assay type: cell-based
# Description: as §1, §2
# [7] = test system: A-tdt, AP-tdt, and AKP-tdt murine colorectal cancer organoids; assay: Cellular toxicity across the A-tdt, AP-tdt and AKP-tdt organoid series; assay type: cell-based; conditions: series of A-tdt
# Description: Colonic crypts were isolated and colon organoids were generated from the following mouse genotypes on a C57Bl/6 background: 1. Rosa-LSL-TdTomato (hereafter LSL-tdt), 2. P53^f1/f1; LSL-tdt, and 3. LSL-KRAS^G12D/WT; P53^fl/fl; LSL-tdt mice. Subsequently, the pSECC-APC plasmid (carrying Cre, Cas9, and sgAPC) was transfected into each of the above three genotypes of colon organoids. This transfection strategy generated, in a single step, the following colorectal cancer organoids, including 1. APC^−/−; TdTomato^+ (A-tdt), 2. APC^−/−; P53^−/−; TdTomato^+ (AP-tdt), and 3. APC^−/−; KRAS^G12D/WT; P53^−/−; TdTomato^+ (AKP-tdt). Organoids of the desired genotype were selected for by Wnt/Rspo withdrawal for APC^−/−, Nutlin-3 addition for P53^−/−, and EGF withdrawal for KRAS^G12D.
# Twenty four hours after seeding the organoids, a media change was performed and dose responses of oxaliplatin, doxorubicin and doxaliplatin were added. Forty eight hours after treatment, cell growth was evaluated by resazurin assay. Organoids were cultured in Advanced DMEM/F12 supplemented with 2 mM GlutaMAX, 1% Penicillin-Streptomycin, 2% B27, and Y-27632 (10 μM).
compound,measurement,setting,value
"COc1cccc2c1C(=O)c1c(O)c3c(c(O)c1C2=O)CC(O)(C(=O)CO)CC3OC1CC(N)C(N)C(C)O1.O=C1[O][Pt][O]C1=O (centres unmarked) [DoxPt, Doxaliplatin]",IC50,[1],100 nM
same,IC50,[2],160 nM
same,IC50,"[3]; 72-h exposure, read-out: IC50 against AKP organoids",110 nM
same,Potency relative to oxaliplatin (by IC50),[3]; AKP organoids,13 fold
same,IC50,U2OS human osteosarcoma,52 nM
same,"Fold Resistance (IC50, OVCAR8OXR vs OVCAR8)",[4],1.0 fold
same,"Fold Resistance (IC50, OVCAR8OXR vs OVCAR8)",[4]; listed as doxaliplatin,no change in the IC50 value
same,"Fold Resistance (IC80, OVCAR8OXR vs OVCAR8)",[4]; based on IC80 values,0.6 fold
same,IC50,[4]; read-out: IC50 OVCAR8OXR,140 ± 10 nM
same,IC80,[4]; read-out: IC80 OVCAR8OXR,230 ± 10 nM
same,IC50,[5],92 nM
same,IC50,"[6]; 72-h exposure, read-out: IC50 against AKP-MSH2 organoids",78 nM
same,Potency relative to oxaliplatin (by IC50),[6]; AKP-MSH2 organoids,28 fold
same,Cellular toxicity relative to oxaliplatin,[7],three to ten-fold higher cellular toxicity than oxaliplatin
